Values after ≈ are worked out from the molar mass of the structure shown.
What was measured:
Rattus norvegicus = test: Unbound clearance in rat at 0.5 mg/kg, iv or 1 mg/kg, po; assay type: ADME, organism-based; conditions: in vivo
[1] = Plasma clearance in rat at 0.5 mg/kg, iv or 1 mg/kg, po; assay type: ADME, organism-based
[2] = Intrinsic clearance in human hepatocytes after 120 mins by LC-MS/MS analysis; assay type: ADME, cell-based, Hepatocyte; conditions: read-out: CLH
[3] = target: Voltage-gated inwardly rectifying potassium channel KCNH2 (Homo sapiens, UniProt Q12809)
Voltage-gated inwardly rectifying potassium channel KCNH2, sequence (Q12809 whole entry): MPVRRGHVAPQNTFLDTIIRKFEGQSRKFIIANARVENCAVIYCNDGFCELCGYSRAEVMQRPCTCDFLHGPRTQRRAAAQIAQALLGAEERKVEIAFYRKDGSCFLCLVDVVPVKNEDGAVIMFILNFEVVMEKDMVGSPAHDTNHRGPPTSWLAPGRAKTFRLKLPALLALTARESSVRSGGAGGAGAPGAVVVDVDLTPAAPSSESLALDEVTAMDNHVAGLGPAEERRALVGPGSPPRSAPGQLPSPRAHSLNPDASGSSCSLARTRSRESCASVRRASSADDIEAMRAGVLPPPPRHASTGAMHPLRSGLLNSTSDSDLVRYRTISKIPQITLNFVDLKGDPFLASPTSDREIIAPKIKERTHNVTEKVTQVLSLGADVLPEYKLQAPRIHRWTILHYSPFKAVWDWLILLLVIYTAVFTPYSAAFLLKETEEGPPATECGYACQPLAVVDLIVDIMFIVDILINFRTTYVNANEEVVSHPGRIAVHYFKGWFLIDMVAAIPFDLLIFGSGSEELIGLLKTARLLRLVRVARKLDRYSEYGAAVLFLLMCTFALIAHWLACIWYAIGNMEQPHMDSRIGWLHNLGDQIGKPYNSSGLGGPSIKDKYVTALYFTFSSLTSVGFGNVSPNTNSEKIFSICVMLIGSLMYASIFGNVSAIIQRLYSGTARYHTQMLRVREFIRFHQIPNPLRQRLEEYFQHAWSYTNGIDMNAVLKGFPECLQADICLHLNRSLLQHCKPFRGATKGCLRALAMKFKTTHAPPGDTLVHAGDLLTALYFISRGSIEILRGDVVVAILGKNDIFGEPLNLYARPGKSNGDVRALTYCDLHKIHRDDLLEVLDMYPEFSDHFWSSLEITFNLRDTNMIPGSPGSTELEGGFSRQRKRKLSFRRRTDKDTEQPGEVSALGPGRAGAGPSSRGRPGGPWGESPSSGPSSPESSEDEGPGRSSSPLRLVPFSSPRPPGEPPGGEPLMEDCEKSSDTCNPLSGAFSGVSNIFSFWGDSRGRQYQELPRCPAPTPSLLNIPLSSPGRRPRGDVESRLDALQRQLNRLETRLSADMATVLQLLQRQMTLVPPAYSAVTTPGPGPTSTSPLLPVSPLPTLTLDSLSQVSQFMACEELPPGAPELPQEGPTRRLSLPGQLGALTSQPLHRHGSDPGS

[4] = Intrinsic clearance in rat hepatocytes after 120 mins by LC-MS/MS analysis; assay type: ADME, cell-based, Hepatocyte; conditions: read-out: CLH
[5] = Lipophilicity, log D of the compound at 100 uM at pH 7 by HPLC/DAD analysis; assay type: physicochemical; conditions: buffer
[6] = target: T1, Tyrosine-protein kinase JAK3 (Homo sapiens, UniProt P52333)
T1 sequence (P52333 whole entry): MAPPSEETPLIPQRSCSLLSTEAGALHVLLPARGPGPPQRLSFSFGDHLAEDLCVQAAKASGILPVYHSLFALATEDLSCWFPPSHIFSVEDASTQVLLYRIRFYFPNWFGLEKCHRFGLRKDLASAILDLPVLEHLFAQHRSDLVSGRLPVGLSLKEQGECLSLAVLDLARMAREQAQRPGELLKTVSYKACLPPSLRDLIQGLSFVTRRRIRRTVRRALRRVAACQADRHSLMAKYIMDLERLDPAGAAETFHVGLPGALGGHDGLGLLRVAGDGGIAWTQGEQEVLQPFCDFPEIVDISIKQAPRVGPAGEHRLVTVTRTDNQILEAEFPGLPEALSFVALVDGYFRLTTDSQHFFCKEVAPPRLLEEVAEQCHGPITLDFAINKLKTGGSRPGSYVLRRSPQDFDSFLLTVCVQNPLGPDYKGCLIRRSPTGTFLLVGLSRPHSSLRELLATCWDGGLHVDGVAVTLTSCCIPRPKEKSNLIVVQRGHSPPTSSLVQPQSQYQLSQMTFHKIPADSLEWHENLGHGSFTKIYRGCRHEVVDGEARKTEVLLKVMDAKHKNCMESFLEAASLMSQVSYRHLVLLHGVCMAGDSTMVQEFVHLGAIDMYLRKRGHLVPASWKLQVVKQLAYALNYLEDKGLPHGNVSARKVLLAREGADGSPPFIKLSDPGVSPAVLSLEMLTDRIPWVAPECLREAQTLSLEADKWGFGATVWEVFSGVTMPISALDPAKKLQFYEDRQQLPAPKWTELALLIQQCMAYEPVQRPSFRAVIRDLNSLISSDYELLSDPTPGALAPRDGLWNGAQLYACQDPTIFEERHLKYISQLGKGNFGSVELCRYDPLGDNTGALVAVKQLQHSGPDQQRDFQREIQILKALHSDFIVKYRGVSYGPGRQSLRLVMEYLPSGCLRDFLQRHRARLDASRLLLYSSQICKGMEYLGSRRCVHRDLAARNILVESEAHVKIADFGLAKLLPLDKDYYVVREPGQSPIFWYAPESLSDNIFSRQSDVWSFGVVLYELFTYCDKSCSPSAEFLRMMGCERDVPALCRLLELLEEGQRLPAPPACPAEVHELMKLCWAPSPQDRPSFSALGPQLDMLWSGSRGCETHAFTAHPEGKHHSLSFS

[7] = target: T2, Tyrosine-protein kinase JAK2 (Homo sapiens, UniProt O60674)
T2 sequence (O60674 whole entry): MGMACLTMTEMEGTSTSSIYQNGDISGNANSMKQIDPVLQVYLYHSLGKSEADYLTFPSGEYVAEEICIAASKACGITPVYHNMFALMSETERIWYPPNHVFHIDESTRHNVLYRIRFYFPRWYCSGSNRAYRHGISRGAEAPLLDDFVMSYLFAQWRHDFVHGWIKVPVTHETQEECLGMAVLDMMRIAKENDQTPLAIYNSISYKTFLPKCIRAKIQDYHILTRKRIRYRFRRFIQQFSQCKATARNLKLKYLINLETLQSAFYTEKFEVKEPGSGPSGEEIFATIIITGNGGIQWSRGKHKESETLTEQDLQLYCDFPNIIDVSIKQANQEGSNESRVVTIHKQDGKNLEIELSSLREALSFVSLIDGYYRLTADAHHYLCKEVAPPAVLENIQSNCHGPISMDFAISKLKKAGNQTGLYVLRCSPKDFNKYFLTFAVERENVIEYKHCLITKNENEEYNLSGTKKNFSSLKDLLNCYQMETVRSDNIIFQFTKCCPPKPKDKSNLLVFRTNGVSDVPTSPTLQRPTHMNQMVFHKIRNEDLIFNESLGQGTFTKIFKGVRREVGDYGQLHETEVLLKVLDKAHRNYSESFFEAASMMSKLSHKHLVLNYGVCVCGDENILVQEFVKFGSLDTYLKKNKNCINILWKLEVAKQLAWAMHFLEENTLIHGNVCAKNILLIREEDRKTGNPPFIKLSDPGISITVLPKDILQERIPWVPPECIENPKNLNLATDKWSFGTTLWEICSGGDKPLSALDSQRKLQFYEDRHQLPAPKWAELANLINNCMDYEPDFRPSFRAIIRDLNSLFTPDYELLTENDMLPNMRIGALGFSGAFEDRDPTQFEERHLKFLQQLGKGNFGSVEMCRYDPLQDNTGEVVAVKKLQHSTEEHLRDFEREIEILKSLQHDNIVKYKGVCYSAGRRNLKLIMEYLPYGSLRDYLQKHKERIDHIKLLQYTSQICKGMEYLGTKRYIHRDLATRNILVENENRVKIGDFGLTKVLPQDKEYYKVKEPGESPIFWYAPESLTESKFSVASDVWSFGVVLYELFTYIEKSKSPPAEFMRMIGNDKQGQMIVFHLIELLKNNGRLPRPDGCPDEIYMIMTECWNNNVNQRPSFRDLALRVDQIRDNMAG

[8] = Oral bioavailability in rat at 1 mg/kg; assay type: ADME, organism-based; conditions: in vivo
Homo sapiens = species on record: Homo sapiens; test: Selectivity ratio of IC50 for GST-tagged recombinant human JAK2 catalytic domain to IC50 for GST-tagged recombinant human JAK1 catalytic domain
[9] = target: T3, Tyrosine-protein kinase JAK1 (Homo sapiens, UniProt P23458)
T3 sequence (P23458 whole entry): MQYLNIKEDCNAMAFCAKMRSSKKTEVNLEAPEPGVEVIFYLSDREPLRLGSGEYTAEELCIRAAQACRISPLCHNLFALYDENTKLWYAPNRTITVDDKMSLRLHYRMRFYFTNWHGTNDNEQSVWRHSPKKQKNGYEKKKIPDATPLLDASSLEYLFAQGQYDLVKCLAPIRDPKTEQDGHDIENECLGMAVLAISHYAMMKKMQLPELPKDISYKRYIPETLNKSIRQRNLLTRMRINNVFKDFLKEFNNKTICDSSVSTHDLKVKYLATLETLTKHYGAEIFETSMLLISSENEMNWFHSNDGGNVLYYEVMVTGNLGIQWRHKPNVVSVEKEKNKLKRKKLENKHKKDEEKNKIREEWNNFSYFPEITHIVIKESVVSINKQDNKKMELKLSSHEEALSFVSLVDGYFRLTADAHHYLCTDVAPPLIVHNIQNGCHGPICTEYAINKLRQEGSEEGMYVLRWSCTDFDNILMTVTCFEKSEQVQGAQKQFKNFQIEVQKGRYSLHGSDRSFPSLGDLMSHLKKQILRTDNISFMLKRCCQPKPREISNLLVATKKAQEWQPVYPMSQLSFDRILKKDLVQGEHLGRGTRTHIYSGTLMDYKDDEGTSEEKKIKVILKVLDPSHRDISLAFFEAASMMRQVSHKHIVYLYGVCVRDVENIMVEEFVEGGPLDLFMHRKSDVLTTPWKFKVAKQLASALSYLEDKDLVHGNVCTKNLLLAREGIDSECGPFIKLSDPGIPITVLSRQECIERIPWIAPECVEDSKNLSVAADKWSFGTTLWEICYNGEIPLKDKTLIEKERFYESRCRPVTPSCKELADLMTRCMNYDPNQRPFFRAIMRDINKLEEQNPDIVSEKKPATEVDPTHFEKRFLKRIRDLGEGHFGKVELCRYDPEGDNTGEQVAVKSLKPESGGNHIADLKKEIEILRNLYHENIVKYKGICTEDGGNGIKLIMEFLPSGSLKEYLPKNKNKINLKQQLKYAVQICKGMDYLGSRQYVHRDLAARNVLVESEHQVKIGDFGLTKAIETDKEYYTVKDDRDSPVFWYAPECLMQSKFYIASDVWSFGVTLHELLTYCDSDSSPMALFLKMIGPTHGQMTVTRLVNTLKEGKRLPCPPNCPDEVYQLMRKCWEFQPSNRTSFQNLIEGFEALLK

[10] = target: Non-receptor tyrosine-protein kinase TYK2 (Homo sapiens, UniProt P29597)
Non-receptor tyrosine-protein kinase TYK2, sequence (P29597 whole entry): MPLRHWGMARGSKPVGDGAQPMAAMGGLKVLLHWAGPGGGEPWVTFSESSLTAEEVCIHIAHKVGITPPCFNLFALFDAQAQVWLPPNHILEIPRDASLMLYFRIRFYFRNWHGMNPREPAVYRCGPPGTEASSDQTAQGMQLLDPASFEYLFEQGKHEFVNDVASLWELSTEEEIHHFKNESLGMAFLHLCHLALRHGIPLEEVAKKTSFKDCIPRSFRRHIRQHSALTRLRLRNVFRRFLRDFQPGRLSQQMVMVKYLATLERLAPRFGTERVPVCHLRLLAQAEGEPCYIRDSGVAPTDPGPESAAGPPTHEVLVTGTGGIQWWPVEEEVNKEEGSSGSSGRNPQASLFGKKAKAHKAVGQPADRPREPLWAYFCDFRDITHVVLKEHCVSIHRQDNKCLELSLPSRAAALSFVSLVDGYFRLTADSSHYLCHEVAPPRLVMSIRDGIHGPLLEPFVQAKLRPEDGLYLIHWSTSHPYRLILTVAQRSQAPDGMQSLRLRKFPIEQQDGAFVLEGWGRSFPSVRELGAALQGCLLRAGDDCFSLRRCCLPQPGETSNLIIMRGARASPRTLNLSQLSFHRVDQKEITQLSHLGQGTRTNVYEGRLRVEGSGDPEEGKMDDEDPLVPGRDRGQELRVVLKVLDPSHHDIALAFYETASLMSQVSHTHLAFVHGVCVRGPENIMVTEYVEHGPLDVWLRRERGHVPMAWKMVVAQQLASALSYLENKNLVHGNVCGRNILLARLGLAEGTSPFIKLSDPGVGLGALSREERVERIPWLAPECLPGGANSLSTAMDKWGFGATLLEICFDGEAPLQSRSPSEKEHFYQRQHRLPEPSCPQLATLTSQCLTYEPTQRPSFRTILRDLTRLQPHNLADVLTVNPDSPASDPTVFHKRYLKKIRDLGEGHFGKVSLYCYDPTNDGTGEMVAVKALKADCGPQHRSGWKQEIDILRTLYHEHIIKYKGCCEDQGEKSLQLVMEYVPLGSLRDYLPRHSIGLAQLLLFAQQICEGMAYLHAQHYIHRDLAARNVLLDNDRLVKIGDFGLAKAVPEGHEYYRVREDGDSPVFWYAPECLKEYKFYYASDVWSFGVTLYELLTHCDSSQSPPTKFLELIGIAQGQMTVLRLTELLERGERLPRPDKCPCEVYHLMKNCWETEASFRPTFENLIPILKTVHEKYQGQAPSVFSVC

[11] = target: T2, Tyrosine-protein kinase JAK2; remark: listed apart in the source
[12] = target: T3, Tyrosine-protein kinase JAK1; remark: listed apart in the source
[13] = Solubility of the compound in FaSSIF solution at 100 uM after overnight incubation by UPLC/DAD analysis; assay type: physicochemical

| SMILES | CL free (Rattus norvegicus) [mL/min/kg] | clearance [1] [mL/min/kg] | CLint scaled [2] [mL/min/kg] | CLint scaled [4] [mL/min/kg] | logD at 100 µM [5] | IC50 [6] [nM] | IC50 [7] [nM] | bioavailability [8] [%] | IC50 [9] [nM] | IC50 [10] [nM] | IC50 [11] [nM] | IC50 [12] [nM] | solubility at 100 µM [13] [µM] | IC50 [3] [nM] | Ratio IC50 (Homo sapiens) |
| --- | --- | --- | --- | --- | --- | --- | --- | --- | --- | --- | --- | --- | --- | --- | --- |
| N#C[C@H]1CCCC[C@@H]1n1cc(C(N)=O)c(Nc2ccccc2)n1 | 12100 | 484 | 25 | 160 | 2.66 |  |  |  |  |  |  |  |  | > 60000 |  |
| CN(C)c1cc(Nc2nn([C@H]3COCC[C@@H]3C#N)cc2C(N)=O)cc(F)n1 |  |  | 4 | 9 | 2.07 | 701 | 530 | 4 | 28 | 13 | 3.4 | 0.18 |  |  | 19 |
| COc1ccnc2c(F)cc(Nc3nn([C@H]4COCC[C@@H]4C#N)cc3C(N)=O)cc12 |  |  | 15 | 15 | 1.4 | > 1500 | 2110 |  | 24 | 8 | 10 | 0.19 |  |  | 53 |
| N#C[C@H]1CCOC[C@@H]1n1cc(C(N)=O)c(Nc2cc(F)c3nccc(Cl)c3c2)n1 |  |  | 25 | 52 | 1.81 | 1010 | 608 | 19 | 14 | 12 | 7 | 0.24 |  |  | 29 |
| N#C[C@H]1C[C@@H](O)CC[C@@H]1n1cc(C(N)=O)c(Nc2ccc(Cl)cc2)n1 |  |  |  |  |  |  |  | 10 |  |  |  |  |  | 26000 |  |
| N#C[C@H]1CCOC[C@@H]1n1cc(C(N)=O)c(Nc2ccc(OC(F)F)cc2)n1 |  |  | 28 | 59 | 2.27 | 196 | 54 | 42 | 5 | 0.7 | 0.8 | 0.1 |  | 25000 | 11 |
| Cc1ncnc2ccc(Nc3nn([C@H]4COCC[C@@H]4C#N)cc3C(N)=O)cc12 |  |  |  |  | 1.02 | 783 | 1630 |  | 24 | 14 | 7 | 0.16 |  |  | 43 |
| N#C[C@H]1CCOC[C@@H]1n1cc(C(N)=O)c(Nc2ccc([C@H](O)C(F)(F)F)cc2)n1 |  |  | < 20 | < 40 | 1.93 | 100 |  | 9 |  | 0.4 |  |  |  | > 60000 |  |
| COc1cc(Nc2nn([C@H]3COCC[C@@H]3C#N)cc2C(N)=O)cc(F)n1 [ATINVICITINIB] |  |  | 2 | 14 | 1.89 |  |  | 49 | 39 | 13 |  | 0.4 |  |  |  |
| Cn1cc(-c2ccc(Nc3nn([C@H]4COCC[C@@H]4C#N)cc3C(N)=O)cc2)cn1 |  |  | < 20 | 55 | 1.48 | 91 | 39 | 18 | 6 | 0.2 | 0.5 | 0.02 | 42 (≈ 16.4 µg/mL) | > 60000 | 23 |
| N#C[C@H]1CCOC[C@@H]1n1cc(C(N)=O)c(Nc2ccc(-n3ccnn3)cc2)n1 |  |  | 2.5 | 4.8 | 1 | 116 | 254 | 3 | 23 | 0.5 | 0.7 | 0.06 | 96 (≈ 36.3 µg/mL) |  |  |
| N#C[C@H]1CCOC[C@@H]1n1cc(C(N)=O)c(Nc2ccccc2)n1 | 110 | 20 | 6 | 70 | 2.08 | 361 |  | 79 | 33 | 2.9 |  | 0.4 | 18 (≈ 5.6 µg/mL) | > 60000 |  |
| C[C@@H]1NS(=O)(=O)c2ccc(Nc3nn([C@H]4COCC[C@@H]4C#N)cc3C(N)=O)cc21 |  |  | 62 | 62 | 3.15 | 315 | 224 |  | 16 | 1.7 | 2 | 0.04 |  |  | 50 |
| N#C[C@H]1CCOC[C@@H]1n1cc(C(N)=O)c(Nc2ccc(C3CC3)cc2)n1 |  |  | 41 | 262 | 2.58 | 280 | 200 |  | 37 | 3.9 | 1.9 | 0.5 |  | 35000 | 4 |
| CN([C@H]1CC[C@H](n2cc(C(N)=O)c(Nc3ccc(Cl)cc3)n2)[C@@H](C#N)C1)C1(C)COC1 |  |  | 32 | 80 |  |  |  |  |  |  |  |  |  | 46000 |  |

More lines, main results first:

| CL free (Rattus norvegicus) [mL/min/kg] | clearance [1] [mL/min/kg] | CLint scaled [2] [mL/min/kg] | CLint scaled [4] [mL/min/kg] | logD at 100 µM [5] | IC50 [6] [nM] | IC50 [7] [nM] | bioavailability [8] [%] | IC50 [9] [nM] | IC50 [10] [nM] | IC50 [11] [nM] | IC50 [12] [nM] | solubility at 100 µM [13] [µM] | SMILES | IC50 [3] [nM] | Ratio IC50 (Homo sapiens) |
| --- | --- | --- | --- | --- | --- | --- | --- | --- | --- | --- | --- | --- | --- | --- | --- |
|  |  | 24 | < 40 | 1.87 | 391 | 430 | 2 | 19 | 9 | 3.2 |  |  | COc1cc(Nc2nn([C@H]3COCC[C@@H]3C#N)cc2C(N)=O)ccc1C#N |  | 46 |
|  |  |  |  | 2.18 | 556 | 261 | 23 | 26 | 4 | 2.7 | 0.4 |  | N#Cc1ccc(Nc2nn([C@H]3COCC[C@@H]3C#N)cc2C(N)=O)cc1Cl |  | 7 |
|  |  |  |  | 1.99 | 656 | 1190 |  | 77 | 11 | 5 | 0.9 |  | N#Cc1ccc(Nc2nn([C@H]3COCC[C@@H]3C#N)cc2C(N)=O)cc1C#N |  | 6 |
|  |  |  |  | 2.34 | > 1500 | 744 |  | 72 | 40 | 16 | 1.4 |  | N#Cc1ccc(Nc2nn([C@H]3COCC[C@@H]3C#N)cc2C(N)=O)cc1C1CC1 |  | 11 |
|  |  | 85 | 9 | 2.57 | 256 |  | 71 |  | 2 |  |  | 39 (≈ 13.5 µg/mL) | N#C[C@H]1CCOC[C@@H]1n1cc(C(N)=O)c(Nc2ccc(Cl)cc2)n1 | 40000 |  |
|  |  | 1.5 | 5 | 1.18 | 511 |  | 19 |  | 3 |  |  | 159 (≈ 52.5 µg/mL) | N#C[C@H]1CCOC[C@@H]1n1cc(C(N)=O)c(Nc2ccnc(F)c2)n1 | > 60000 |  |
|  |  | < 20 | < 40 | 2.18 | 304 | 334 | 40 | 31 | 1.8 | 2 | 0.3 | 42 (≈ 13.8 µg/mL) | N#C[C@H]1CCOC[C@@H]1n1cc(C(N)=O)c(Nc2ccc(F)cc2)n1 | 40000 | 7 |

— ChEMBL document CHEMBL4028908, “The Discovery of 3-((4-Chloro-3-methoxyphenyl)amino)-1-((3R,4S)-4-cyanotetrahydro-2H-pyran-3-yl)-1H-pyrazole-4-carboxamide, a Highly Ligand Efficient and Efficacious Janus Kinase 1 Selective Inhibitor with Favorable Pharmacokinetic Properties” (J Med Chem, 2017)
